Measured values as given in patent US20260125382A1, “COMPOUNDS FOR INHIBITING OR DEGRADING CDK2 AND/OR CDK9 AND MEDICINAL USE THEREOF” (KOREA RESEARCH INSTITUTE OF CHEMICAL TECHNOLOGY, priority 2022, published 2026).

Key:
CDK2 = molecular target: T1, CDK2 (Homo sapiens, UniProt P24941); test: CDK protein degradation activity (Western blotting), CDK2; format: cell-based; conditions: MDA-MB-231 cells, 16 hours, Western blot
T1 construct: endogenous in cells; host or cells: MDA-MB-231
Method in brief: (§1)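 Breast cancer line MDA-MB-231, 16 h compound treatment (100 nM–10 μM final, three doses). Immunoblot quantification of CDK2/CDK9 versus tubulin, normalized to DMSO control.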

CDK9 = molecular target: T2, CDK9 (Homo sapiens, UniProt P50750); test: CDK protein degradation activity (Western blotting), CDK9; format: cell-based; conditions: MDA-MB-231 cells, 16 hours, Western blot
T2 construct: endogenous in cells; host or cells: MDA-MB-231
T2 sequence (P50750 whole entry): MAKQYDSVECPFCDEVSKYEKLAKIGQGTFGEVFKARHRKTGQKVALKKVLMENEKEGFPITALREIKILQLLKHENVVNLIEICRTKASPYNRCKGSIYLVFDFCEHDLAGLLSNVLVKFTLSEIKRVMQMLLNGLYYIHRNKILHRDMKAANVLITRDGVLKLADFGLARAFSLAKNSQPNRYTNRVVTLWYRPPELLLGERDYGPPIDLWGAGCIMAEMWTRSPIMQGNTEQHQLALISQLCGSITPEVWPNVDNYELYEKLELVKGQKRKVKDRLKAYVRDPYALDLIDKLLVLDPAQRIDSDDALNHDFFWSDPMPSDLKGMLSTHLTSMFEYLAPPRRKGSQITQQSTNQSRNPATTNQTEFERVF
Method in brief: as §1

Row | Enzyme degradation CDK2 (% remaining) @ 0.1 μM (CDK2) | Enzyme degradation CDK2 (% remaining) @ 1 μM (CDK2) | Enzyme degradation CDK2 (% remaining) @ 10 μM (CDK2) | Enzyme degradation CDK9 (% remaining) @ 0.1 μM (CDK9) | Enzyme degradation CDK9 (% remaining) @ 1 μM (CDK9) | Enzyme degradation CDK9 (% remaining) @ 10 μM (CDK9) | SMILES
1 | 30/30/30% | 30/30/30% | 30/30/30% | 10% | 0% | 0% | O=C1CC[C@H](N2C(=O)c3ccc(N4CCC5(CC4)CC(N4CCN(c6ccc(Nc7ncnc8c7ncn8[C@H]7C[C@@H](NC(=O)Cc8ccccc8)C7)cc6)CC4)C5)cc3C2=O)C(=O)N1 [Compound 210, N-((1s,3s)-3-(6-((4-(4-(7-(2-(2,6-dioxopiperidin-3-yl)-1,3-dioxoisoindolin-5-yl)-7-azaspiro[3.5]nonan-2-yl)piperazin-1-yl)phenyl)amino)-9H-purin-9-yl)cyclobutyl)-2-phenylacetamide]
2 | 50% | 50% | 40% | 30/30/30% | 30/30/30% | 30/30/30% | O=C1CC[C@H](N2C(=O)c3cccc(NCC(=O)N4CCC(CC(=O)N5CCN(c6ccc(Nc7ncnc8c7ncn8C7CC(NC(=O)Cc8ccccc8)C7)cc6)CC5)CC4)c3C2=O)C(=O)N1 (stereo partly drawn) [Compound 211, N-((1s,3s)-3-(6-((4-(4-(2-(1-((2-(2,6-dioxopiperidin-3-yl)-1,3-dioxoisoindolin-4-yl)glycyl)piperidin-4-yl)acetyl)piperazin-1-yl)phenyl)amino)-9H-purin-9-yl)cyclobutyl)-2-phenylacetamide]
3 | 30% | 20% | 10% | 70% | 30% | 20% | O=C1CC[C@H](N2C(=O)c3cccc(OCC(=O)N4CCC(CC(=O)N5CCN(c6ccc(Nc7ncnc8c7ncn8C7CC(NC(=O)Cc8ccccc8)C7)cc6)CC5)CC4)c3C2=O)C(=O)N1 (stereo partly drawn) [Compound 212, N-((1s,3s)-3-(6-((4-(4-(2-(1-(2-((2-(2,6-dioxopiperidin-3-yl)-1,3-dioxoisoindolin-4-yl)oxy)acetyl)piperidin-4-yl)acetyl)piperazin-1-yl)phenyl)amino)-9H-purin-9-yl)cyclobutyl)-2-phenylacetamide]
4 | 50% | 70% | 50% | 70% | 30% | 10% | O=C1CC[C@H](N2C(=O)c3ccc(NCC(=O)N4CCC(CC(=O)N5CCN(c6ccc(Nc7ncnc8c7ncn8C7CC(NC(=O)Cc8ccccc8)C7)cc6)CC5)CC4)cc3C2=O)C(=O)N1 (stereo partly drawn) [Compound 213, N-((1s,3s)-3-(6-((4-(4-(2-(1-((2-(2,6-dioxopiperidin-3-yl)-1,3-dioxoisoindolin-5-yl)glycyl)piperidin-4-yl)acetyl)piperazin-1-yl)phenyl)amino)-9H-purin-9-yl)cyclobutyl)-2-phenylacetamide]
5 | 40% | 40% | 50% | 50/50/50% | 50/50/50% | 50/50/50% | O=C1CC[C@H](N2C(=O)c3ccc(N4CCC(CC(=O)N5CCN(c6ccc(Nc7ncnc8c7ncn8[C@H]7C[C@@H](NC(=O)Cc8ccccc8)C7)cc6)CC5)CC4)cc3C2=O)C(=O)N1 [Compound 216, N-((1s,3s)-3-(6-((4-(4-(2-(1-(2-(2,6-dioxopiperidin-3-yl)-1,3-dioxoisoindolin-5-yl)piperidin-4-yl)acetyl)piperazin-1-yl)phenyl)amino)-9H-purin-9-yl)cyclobutyl)-2-phenylacetamide]
6 | 80% | 100% | 50% | 0/0/0% | 0/0/0% | 0/0/0% | O=C(COc1ccc(C2CCC(=O)NC2=O)cc1)NC[C@H]1CC[C@H](CN2CCN(c3ccc(Nc4ncnc5c4ncn5[C@H]4C[C@@H](NC(=O)Cc5ccccc5)C4)cc3)CC2)CC1 (stereo partly drawn) [Compound 217, 2-(4-(2,6-dioxopiperidin-3-yl)phenoxy)-N-(((1r,4r)-4-((4-(4-((9-((1s,3s)-3-(2-phenylacetamido)cyclobutyl)-9H-purin-6-yl)amino)phenyl)piperazin-1-yl)methyl)cyclohexyl)methyl)acetamide]
7 | 80% | 50% | 50% | 100% | 10% | 0% | O=C(COc1cccc2c1C(=O)N(C1CCC(=O)NC1=O)C2=O)NCC1CCC(CN2CCN(c3ccc(Nc4ncnc5c4ncn5C4CC(NC(=O)Cc5ccccc5)C4)cc3)CC2)CC1 (stereo not drawn) [Compound 219, 2-((2-(2,6-dioxopiperidin-3-yl)-1,3-dioxoisoindolin-4-yl)oxy)-N-(((1r,4r)-4-((4-(4-((9-((1s,3s)-3-(2-phenylacetamido)cyclobutyl)-9H-purin-6-yl)amino)phenyl)piperazin-1-yl)methyl)cyclohexyl)methyl)acetamide]
8 | 80% | 80% | 60% | 40% | 0% | 0% | O=C(CNc1ccc2c(c1)C(=O)N(C1CCC(=O)NC1=O)C2=O)NC[C@H]1CC[C@H](CN2CCN(c3ccc(Nc4ncnc5c4ncn5[C@H]4C[C@@H](NC(=O)Cc5ccccc5)C4)cc3)CC2)CC1 (stereo partly drawn) [Compound 220, 2-((2-(2,6-dioxopiperidin-3-yl)-1,3-dioxoisoindolin-5-yl)amino)-N-(((1r,4r)-4-((4-(4-((9-((1s,3s)-3-(2-phenylacetamido)cyclobutyl)-9H-purin-6-yl)amino)phenyl)piperazin-1-yl)methyl)cyclohexyl)methyl)acetamide]
9 | 100/100/100% | 100/100/100% | 100/100/100% | 100% | 60% | 0% | O=C(COc1ccc2c(c1)C(=O)N(C1CCC(=O)NC1=O)C2=O)NC[C@H]1CC[C@H](CN2CCN(c3ccc(Nc4ncnc5c4ncn5[C@H]4C[C@@H](NC(=O)Cc5ccccc5)C4)cc3)CC2)CC1 (stereo partly drawn) [Compound 221, 2-((2-(2,6-dioxopiperidin-3-yl)-1,3-dioxoisoindolin-5-yl)oxy)-N-(((1r,4r)-4-((4-(4-((9-((1s,3s)-3-(2-phenylacetamido)cyclobutyl)-9H-purin-6-yl)amino)phenyl)piperazin-1-yl)methyl)cyclohexyl)methyl)acetamide]
10 | 100/100/100% | 100/100/100% | 100/100/100% | 70% | 70% | 80% | O=C1CC[C@H](N2C(=O)c3cccc(NC[C@H]4CC[C@H](CN5CCN(c6ccc(Nc7ncnc8c7ncn8[C@H]7C[C@@H](NC(=O)Cc8ccccc8)C7)cc6)CC5)CC4)c3C2=O)C(=O)N1 [Compound 222, N-((1s,3s)-3-(6-((4-(4-(((1r,4r)-4-(((2-(2,6-dioxopiperidin-3-yl)-1,3-dioxoisoindolin-4-yl)amino)methyl)cyclohexyl)methyl)piperazin-1-yl)phenyl)amino)-9H-purin-9-yl)cyclobutyl)-2-phenylacetamide]
11 | 10% | 20% | 40% | 30% | 0% | 0% | O=C1CC[C@@H](c2cccc(OCC(=O)N3CCC(CN4CCN(c5ccc(Nc6ncnc7c6ncn7C6CC(NC(=O)Cc7ccccc7)C6)cc5)CC4)CC3)c2)C(=O)N1 (stereo partly drawn) [Compound 225, N-((1s,3s)-3-(6-((4-(4-((1-(2-(3-(2,6-dioxopiperidin-3-yl)phenoxy)acetyl)piperidin-4-yl)methyl)piperazin-1-yl)phenyl)amino)-9H-purin-9-yl)cyclobutyl)-2-phenylacetamide]
12 | 40% | 30% | 40% | 0/0/0% | 0/0/0% | 0/0/0% | O=C1CC[C@@H](c2cccc(OCC(=O)N3CCC4(CC3)CC(N3CCN(c5ccc(Nc6ncnc7c6ncn7C6CC(NC(=O)Cc7ccccc7)C6)cc5)CC3)C4)c2)C(=O)N1 (stereo partly drawn) [Compound 226, N-((1s,3s)-3-(6-((4-(4-(7-(2-(3-(2,6-dioxopiperidin-3-yl)phenoxy)acetyl)-7-azaspiro[3.5]nonan-2-yl)piperazin-1-yl)phenyl)amino)-9H-purin-9-yl)cyclobutyl)-2-phenylacetamide]
13 | 50% | 20% | 70% | 60% | 70% | 10% | O=C1CC[C@@H](c2cccc(OCC(=O)N3CCC(CC(=O)N4CCN(c5ccc(Nc6ncnc7c6ncn7[C@H]6C[C@@H](NC(=O)Cc7ccccc7)C6)cc5)CC4)CC3)c2)C(=O)N1 [Compound 227, N-((1s,3s)-3-(6-((4-(4-(2-(1-(2-(3-(2,6-dioxopiperidin-3-yl)phenoxy)acetyl)piperidin-4-yl)acetyl)piperazin-1-yl)phenyl)amino)-9H-purin-9-yl)cyclobutyl)-2-phenylacetamide]
